Values of other authors as cited in patent US5858994A, “Carbohydrate conjugates as inhibitors of cell adhesion” (priority 1994, dated 1999).

System: selectin receptors
Conditions: compared with sialyl-Lewis X; cited from earlier work

CC(=O)N[C@@H]1[C@@H](O[C@@H]2O[C@H](CO)[C@H](O)[C@H](O[C@]3(C(=O)O)C[C@H](O)[C@@H](NC(C)=O)[C@H]([C@H](O)[C@H](O)CO)O3)[C@H]2O)[C@H](O[C@@H]2O[C@@H](C)[C@@H](O)[C@@H](O)[C@@H]2O)[C@@H](CO)O[C@H]1O [sialyl-Lewis A]
binding to selectin receptors relative to the X type: comparable affinity
